The supplement of paper PMC10307832

Legend:
Test in all cases: relative viability (nuclei count vs DMSO), 5 days (fraction); higher = more cells survive
MK-8033 + Alpelisib = compound: Cn1cc(-c2cnc3ccc4ccc(CS(=O)(=O)NCc5ccccn5)cc4c(=O)c3c2)cn1 [MK-8033] + Cc1nc(NC(=O)N2CCC[C@H]2C(N)=O)sc1-c1ccnc(C(C)(C)C(F)(F)F)c1 [Alpelisib] (partner 2 µM)
In short: (§1)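 Lung cancer cell lines in 1536-well plates got either a single drug or a fixed anchor-drug dose together with five library-drug doses (not always all listed) in √10 steps, by pin tool, on the day after seeding. Nuclei were counted after 5 days, and relative viability is the treated-to-vehicle ratio of nuclei counts. Values are medians of duplicate plates.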

MK-8033 + Foretinib = compound: Cn1cc(-c2cnc3ccc4ccc(CS(=O)(=O)NCc5ccccn5)cc4c(=O)c3c2)cn1 [MK-8033] + COc1cc2c(Oc3ccc(NC(=O)C4(C(=O)Nc5ccc(F)cc5)CC4)cc3F)ccnc2cc1OCCCN1CCOCC1 [Foretinib] (partner 0.25 µM)
In short: as §1

Irinotecan + Navitoclax = compound: CCc1c2c(nc3ccc(OC(=O)N4CCC(N5CCCCC5)CC4)cc13)-c1cc3c(c(=O)n1C2)COC(=O)[C@]3(O)CC [Irinotecan] + CC1(C)CCC(c2ccc(Cl)cc2)=C(CN2CCN(c3ccc(C(=O)NS(=O)(=O)c4ccc(N[C@H](CCN5CCOCC5)CSc5ccccc5)c(S(=O)(=O)C(F)(F)F)c4)cc3)CC2)C1 [Navitoclax] (partner 0.5 µM)
In short: as §1

RU-SKI 43 + Linsitinib = compound: CC[C@@H](C)CNCC(=O)N1CCC2=C([C@@H]1COC3=CC=CC(=C3)C)C=CS2 [RU-SKI 43] + C[C@]1(O)C[C@@H](c2nc(-c3ccc4ccc(-c5ccccc5)nc4c3)c3c(N)nccn32)C1 [Linsitinib] (partner 1 µM)
In short: as §1

| Cell Line | relative viability (MK-8033 + Alpelisib; first compound 0.02 µM) | relative viability (MK-8033 + Alpelisib; first compound 0.06325 µM) | relative viability (MK-8033 + Alpelisib; first compound 0.2 µM) | relative viability (MK-8033 + Alpelisib; first compound 0.6325 µM) | relative viability (MK-8033 + Alpelisib; first compound 2 µM) | relative viability (MK-8033 + Foretinib; first compound 0.02 µM) | relative viability (MK-8033 + Foretinib; first compound 0.06325 µM) | relative viability (MK-8033 + Foretinib; first compound 0.2 µM) | relative viability (MK-8033 + Foretinib; first compound 0.6325 µM) | relative viability (MK-8033 + Foretinib; first compound 2 µM) | relative viability (Irinotecan + Navitoclax; first compound 0.6325 µM) | relative viability (Irinotecan + Navitoclax; first compound 2 µM) | relative viability (Irinotecan + Navitoclax; first compound 6.325 µM) | relative viability (Irinotecan + Navitoclax; first compound 20 µM) | relative viability (RU-SKI 43 + Linsitinib; first compound 0.1 µM) | relative viability (RU-SKI 43 + Linsitinib; first compound 0.3162 µM) | relative viability (RU-SKI 43 + Linsitinib; first compound 1 µM) | relative viability (RU-SKI 43 + Linsitinib; first compound 3.162 µM) | relative viability (RU-SKI 43 + Linsitinib; first compound 10 µM) |
| --- | --- | --- | --- | --- | --- | --- | --- | --- | --- | --- | --- | --- | --- | --- | --- | --- | --- | --- | --- |
| NCI-H838 | 1 | 0.979 | 0.94 | 0.98 | 0.974 | 1.05 | 0.993 | 0.994 | 0.89 | 0.954 | 1.14 | 0.754 | 0.4 | 0.266 | 1.05 | 1.22 | 1.07 | 1 | 1 |
| NCI-H1975 | 0.604 | 0.557 | 0.584 | 0.571 | 0.649 | 0.944 | 0.944 | 0.875 | – | 1 | 1.06 | 1.11 | 0.411 | 0.167 | 0.985 | 1.1 | 0.951 | 0.996 | 0.869 |
| NCI-H1299 | 0.985 | 1.02 | 1.07 | 0.99 | 1.1 | 1.09 | 1.08 | 1.02 | 1.13 | 1.06 | 0.886 | 0.845 | 0.431 | 0.303 | 1.03 | 1.2 | 1.1 | 1.04 | 0.965 |
| SK-MES-1 | 0.927 | 0.811 | 0.89 | 0.936 | 0.96 | 0.899 | 0.86 | 0.858 | 0.805 | 0.851 | 1.29 | 1.22 | 0.226 | 0.208 | 1.03 | 1.1 | 1.18 | 1.04 | 1.01 |
| NCI-H647 | 1.18 | 1.02 | 0.929 | 1.16 | 1.07 | 1.09 | 1.15 | 1.02 | 1.17 | 1.1 | 1.03 | 0.39 | 0.194 | 0.177 | 1.15 | 1.56 | 1.38 | 1.47 | 0.982 |
| A-427 | 1.05 | 1.07 | 1.03 | 1.16 | 1.11 | 1.04 | 1.04 | 0.903 | 1.11 | 1 | – | 0.222 | 0.215 | 0.172 | 1.08 | 1.22 | 1.13 | – | 1.01 |
| HCC-366 | 0.409 | 0.435 | 0.325 | 0.376 | 0.325 | 0.965 | 0.864 | 0.929 | 0.965 | 0.962 | 0.79 | 0.158 | 0.0415 | 0.0387 | 0.604 | 1.83 | 0.694 | 0.608 | 0.592 |
| CAL-12T | 1.08 | 1.08 | 1.08 | 1.25 | 1.06 | 1.05 | 1.14 | 1.03 | 1.09 | 1.11 | 1.32 | 1.43 | 0.491 | 0.38 | 0.726 | 0.873 | 0.877 | 0.827 | 0.771 |
